Reference: patent US9453021B2, “Pyrimidodiazepinone compound” (Kyowa Hakko Kirin Co., Ltd., priority 2011, dated 2016)

Legend:
[1] = tested on: Streptozotocin-induced diabetic pain model (diabetic rats); assay: Pain relieving effect in streptozotocin-induced diabetic pain model; type: in vivo, rat; settings: 1 mg/kg orally; for Relief Rate: pain threshold by von Frey filaments after 1 hour, STZ diabetic rats; for inhibition rate (in words): STZ-induced diabetic pain model
Experimental: Streptozotocin (STZ)-administered rats are widely used as an insulin-dependent diabetes model. In this model, decreased pain thresholds in response to mechanical stimulation are observed as in diabetic neuropathy patients [British Journal of Pharmacology, 1997, Vol. 122, p. 1478-1482].
(1) Preparation of STZ-Induced Diabetes Model
A STZ solution was prepared as a 30 mg/mL solution by being dissolved in a 0.05 mol/L citric acid aqueous solution (pH 4 to 4.5). The STZ solution (30 mg/mL) was intraperitoneally administered in a 2 mL/kg volume to rats (60 mg/kg). Rats showing 250 mg/dL or higher blood glucose levels after 1 week from the STZ administration were obtained as diabetic rats.
(2) Measurement of Pain Relieving Effect
The evaluation of Pain was performed with von Frey filaments [product name: Touch Test Sensory Evaluator, Model Number Model 58011, Muromachi Kikai Co., Ltd.], and the results were calculated as pain thresholds. Specifically, the above diabetic rats were stimulated by the pressure applied to the underside of the feet with von Frey filaments of varying stimulus strengths, and the stimulus strength at which the […] withdrew their feet was determined. From the result, a 50% pain threshold (paw withdrawal threshold)(g) was calculated by using the Dixon's up and down method [Annual Review of Pharmacology and Toxicology, 1980, Vol. 20, p. 441-462].
Rats with a 50% pain threshold of less than 4 g were used for the evaluation of the test compounds. The test compounds were each suspended in a 0.5% methyl cellulose aqueous solution, and orally administered in a 5 mL/kg volume. After 1 hour, the pain threshold was measured using von Frey filaments. The pain relief rate of the test compound was calculated by using the following equation.

α2δ protein = α2δ protein (Rattus norvegicus, UniProt P54290); assay: α2δ protein binding experiment ([3H]-gabapentin binding inhibition); settings: 0.1 μmol/L test compound; [3H]-gabapentin 20 nmol/L; rat cerebral cortex membrane fraction; read-out: inhibitory activity
Experimental: Experiment was conducted according to the methods described in European Journal of Pharmacology, 1993, 244, p. 293-301, using the report of Woodruff G N et al. as a reference (Journal of Biological Chemistry, 1996, 271, p. 5768-5776).
(1) Preparation of Membrane Fraction from Rat Cerebral Cortex
A male SD rat was purchased at the age of 6 weeks, and kept for at least 7 days prior to experiment. The cerebral cortex was removed, and gently washed with Tris-sucrose buffer A (containing 0.32 mol/L sucrose, 5 mmol/L tris-acetate, 1 mmol/L ethylenediaminetetraacetic acid (EDTA), 1 mmol/L ethylene glycol tetraacetic acid (EGTA), and a protease inhibitor cocktail tablet, pH 7.4). The cerebral cortex was placed in Tris-sucrose buffer A, and homogenized in 15 strokes (250 rpm) using a teflon homogenizer to obtain a crude extract. The crude extract was centrifuged at 4° C. for 10 minutes at 2,000 rpm, and the supernatant was collected. After adding Tris-sucrose buffer A to the resulting precipitate, the same homogenization and centrifugation procedures as above were performed, and the resulting supernatant was mixed with the previously obtained supernatant to obtain a total collected supernatant. The total collected supernatant was centrifuged at 4° C. for 30 minutes at 20,000 rpm, and the supernatant (cytosolic fraction) was removed. Tris-acetate buffer A (containing 5 mmol/L tris-acetate, 1 mmol/L EDTA, 1 mmol/L EGTA, and a protease inhibitor cocktail tablet, pH 8.0) was added to the remaining precipitate (cell membrane fraction), and the mixture was stirred for 1 hour. The stirred extract was centrifuged at 4° C. for 30 minutes at 26,500 rpm, and Tris-sucrose buffer B (containing 1.2 mol/L sucrose, 5 mmol/L tris-acetate, pH 7.4) was added to the resulting precipitate. The mixture was dispensed in centrifuge tubes in 15-mL portions, and 9 mL of Tris-sucrose buffer C (containing 0.9 mol/L sucrose, 5 mmol/L tris-acetate, pH 7.4) was gently layered on the mixture in each centrifuge tube without disrupting the interface. The centrifuge tubes were centrifuged at 4° C. for 90 minutes at 43,000 rpm, and the membrane fraction at the interface of the Tris-sucrose buffer B and the Tris-sucrose buffer C was collected with a Pasteur pipette. After adding Tris-acetate buffer B (5 mmol/L tris-acetate, pH 7.4) to the collected membrane fraction, the mixture was centrifuged at 4° C. for 20 minutes at 26,500 rpm. The resulting precipitate was resuspended in Tris-acetate buffer B to obtain a cerebral cortex membrane fraction, and the cerebral cortex membrane fraction was stored at −80° C. until use in the binding experiment. For the binding experiment, the stored suspension was centrifuged at 4° C. for 30 minutes at 32,000 rpm, and Binding buffer [a 0.1 w/v % bovine serum albumin (BSA)-containing 10 mmol/L 4-(2-hydroxyethyl)-1-piperazineethanesulfonic acid (HEPES) solution adjusted to pH 7.4 with sodium hydroxide] for the binding experiment was added to the obtained precipitate, and resuspended with a syringe equipped with an injection needle to adjust to the desired concentration.
(2) [^3H]-Gabapentin Binding Inhibition Experiment
A test compound (20 μL) diluted to 5 times of the final concentration with Binding buffer, [^3H]-gabapentin diluted to 100 nmol/L with binding buffer [20 μL (final concentration 20 nmol/L)], and the rat cerebral cortex membrane fraction (60 μL; 12 μg membrane fraction) obtained in the (1) above were added to each well of a 96-well round-bottom plate. After being sufficiently mixed, these were allowed to react at room temperature for 1 hour. After the reaction, the reaction sample was suction filtered using a filter plate with 50 μL/well of 0.3 vol % polyethyleneimine added, and a cell harvester. The filter was then washed with ice-cooled Wash buffer (100 mmol/L NaCl, 0.1 w/v % BSA). […]

Sequence of α2δ protein (P54290 25-944 limits assumed): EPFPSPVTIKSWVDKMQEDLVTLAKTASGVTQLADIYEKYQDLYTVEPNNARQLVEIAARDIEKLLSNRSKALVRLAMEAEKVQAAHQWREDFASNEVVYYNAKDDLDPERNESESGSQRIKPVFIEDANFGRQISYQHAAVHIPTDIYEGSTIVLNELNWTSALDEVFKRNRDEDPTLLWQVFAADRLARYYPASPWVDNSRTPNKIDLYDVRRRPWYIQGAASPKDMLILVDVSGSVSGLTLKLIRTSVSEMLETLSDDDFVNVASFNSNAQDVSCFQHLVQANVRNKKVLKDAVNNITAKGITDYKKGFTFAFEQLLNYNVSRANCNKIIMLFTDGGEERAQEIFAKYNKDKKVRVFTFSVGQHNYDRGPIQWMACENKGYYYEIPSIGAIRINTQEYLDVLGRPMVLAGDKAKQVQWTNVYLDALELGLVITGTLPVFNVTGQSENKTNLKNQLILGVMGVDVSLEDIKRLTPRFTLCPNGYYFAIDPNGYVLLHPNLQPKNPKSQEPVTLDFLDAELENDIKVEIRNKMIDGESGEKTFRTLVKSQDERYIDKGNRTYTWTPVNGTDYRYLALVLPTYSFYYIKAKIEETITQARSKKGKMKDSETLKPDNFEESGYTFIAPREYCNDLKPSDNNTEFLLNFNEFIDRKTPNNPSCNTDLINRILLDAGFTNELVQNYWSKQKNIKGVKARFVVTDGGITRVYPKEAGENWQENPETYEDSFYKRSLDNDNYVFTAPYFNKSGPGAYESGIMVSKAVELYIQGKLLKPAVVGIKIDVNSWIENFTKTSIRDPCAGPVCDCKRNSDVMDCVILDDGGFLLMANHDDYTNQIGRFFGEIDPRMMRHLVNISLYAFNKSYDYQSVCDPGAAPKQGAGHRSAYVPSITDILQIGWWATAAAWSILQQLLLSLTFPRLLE
Sequence of α2δ protein (P54290 945-1091 limits assumed): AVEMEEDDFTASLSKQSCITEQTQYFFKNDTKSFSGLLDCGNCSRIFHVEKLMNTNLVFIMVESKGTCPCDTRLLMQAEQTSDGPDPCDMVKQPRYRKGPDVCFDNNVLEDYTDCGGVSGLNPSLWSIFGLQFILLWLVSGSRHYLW

Compound | inhibition at 0.1 µM (α2δ protein) | Relief Rate [1] | inhibition rate (in words) [1]
CNc1ncc2c(n1)N1CCC[C@H]1CN(c1cccc3c1C(=O)C(=O)N3C)C2=O [Compound 1-146, (S)-9-Methylamino-5-(1-methylindoline-2,3-dion-4-yl)-1,2,3,3a,4,5-hexahydro-5,8,10,10b-tetraazabenzo[e]azulen-6-one, reference compound] | – | 6% | –
CNc1ncc2c(n1)N1CCC[C@H]1CN(c1cccn3c(=O)c(C)c(C)nc13)C2=O [Compound 8, (S)-6-(2,3-Dimethyl-4-oxo-4H-pyrido[1,2-a]pyrimidin-9-yl)-2-methylamino-6,7,7a,8,9,10-hexahydro-5H-pyrimido[5,4-f]pyrrolo[1,2-a][1,4]diazepin-5-one] | – | 85% | good inhibition rate
CNc1ncc2c(n1)N1CCC[C@H]1CN(c1cccc3c(=O)n(C)cnc13)C2=O [Compound 10, (S)-6-(3-Methyl-4-oxo-3,4-dihydroquinazolin-8-yl)-2-methylamino-6,7,7a,8,9,10-hexahydro-5H-pyrimido[5,4-f]pyrrolo[1,2-a][1,4]diazepin-5-one] | – | 91% | good inhibition rate
CCNc1ncc2c(n1)N1C[C@H](F)C[C@H]1CN(c1cccc3c(=O)n(C)cnc13)C2=O [Compound 115, (7aS,9R)-2-Ethylamino-9-fluoro-6-(3-methyl-4-oxo-3,4-dihydroquinazolin-8-yl)-6,7,7a,8,9,10-hexahydro-5H-pyrimido[5,4-f]pyrrolo[1,2-a][1,4]diazepin-5-one] | ≥ 50% | – | –
CCNc1ncc2c(n1)N1C[C@@H](OC)C[C@H]1CN(c1cccc3c(=O)n(C)cnc13)C2=O [Compound 117, (7aS,9S)-2-Ethylamino-9-methoxy-6-(3-methyl-4-oxo-3,4-dihydroquinazolin-8-yl)-6,7,7a,8,9,10-hexahydro-5H-pyrimido[5,4-f]pyrrolo[1,2-a][1,4]diazepin-5-one] | ≥ 50% | – | –
CCNc1ncc2c(n1)N1C[C@H](O)C[C@H]1CN(c1cccc3c(=O)n(C)cnc13)C2=O [Compound 118, (7aS,9R)-2-Ethylamino-9-hydroxy-6-(3-methyl-4-oxo-3,4-dihydroquinazolin-8-yl)-6,7,7a,8,9,10-hexahydro-5H-pyrimido[5,4-f]pyrrolo[1,2-a][1,4]diazepin-5-one] | ≥ 50% | – | –

The next lines start with results.

inhibition at 0.1 µM (α2δ protein) | Compound | Relief Rate [1] | inhibition rate (in words) [1]
≥ 50% | CCNc1ncc2c(n1)N1CCC[C@H]1CN(c1cccc3c1CCC(=O)N3C)C2=O [Compound 83, (S)-2-Ethylamino-6-(1-methyl-2-oxo-1,2,3,4-tetrahydroquinolin-5-yl)-6,7,7a,8,9,10-hexahydro-5H-pyrimido[5,4-f]pyrrolo[1,2-a][1,4]diazepin-5-one] | – | –
≥ 50% | Cn1cnc2cccc(N3C[C@@H]4CCCN4c4nc(N)ncc4C3=O)c2c1=O [Compound 85, (S)-2-Amino-6-(3-methyl-4-oxo-3,4-dihydroquinazolin-5-yl)-6,7,7a,8,9,10-hexahydro-5H-pyrimido[5,4-f]pyrrolo[1,2-a][1,4]diazepin-5-one] | – | –
≥ 50% | CCNc1ncc2c(n1)N1CCC[C@H]1CN(c1csc3c(=O)n(C)ccc13)C2=O [Compound 90, (S)-3-(2-Ethylamino-5-oxo-7a,8,9,10-tetrahydro-5H-pyrimido[5,4-f]pyrrolo[1,2-a][1,4]diazepin-6(7H)-yl)-6-methylthieno[2,3-c]pyridin-7(6H)-one] | – | –
≥ 50% | CNc1ncc2c(n1)N1CCC[C@H]1CN(c1csc3c(=O)n(C)ccc13)C2=O [Compound 91, (S)-6-Methyl-3-(2-methylamino-5-oxo-7a,8,9,10-tetrahydro-5H-pyrimido[5,4-f]pyrrolo[1,2-a][1,4]diazepin-6(7H)-yl)thieno[2,3-c]pyridin-7(6H)-one] | – | –
≥ 50% | CCNc1ncc2c(n1)N1CCC[C@H]1CN(c1cn(C)c3c(=O)n(C)ccc13)C2=O [Compound 93, (S)-6-(1,6-Dimethyl-7-oxo-6,7-dihydro-1H-pyrrolo[2,3-c]pyridin-3-yl)-2-ethylamino-6,7,7a,8,9,10-hexahydro-5H-pyrimido[5,4-f]pyrrolo[1,2-a][1,4]diazepin-5-one] | – | –
